From patent US11964938B2, “3-phenyl-4-hexynoic acid derivatives as GPR40 agonists” (CELON PHARMA S.A., priority 2018, dated 2024) come the findings set out here.

Where a name gives a salt, the structure may show the parent alone.

For one data set, the target named is T1, MRP4 (Homo sapiens, UniProt O15439).
T1 construct: host or cells: HEK293 (membrane vesicles)
T1 sequence (O15439 1-1325): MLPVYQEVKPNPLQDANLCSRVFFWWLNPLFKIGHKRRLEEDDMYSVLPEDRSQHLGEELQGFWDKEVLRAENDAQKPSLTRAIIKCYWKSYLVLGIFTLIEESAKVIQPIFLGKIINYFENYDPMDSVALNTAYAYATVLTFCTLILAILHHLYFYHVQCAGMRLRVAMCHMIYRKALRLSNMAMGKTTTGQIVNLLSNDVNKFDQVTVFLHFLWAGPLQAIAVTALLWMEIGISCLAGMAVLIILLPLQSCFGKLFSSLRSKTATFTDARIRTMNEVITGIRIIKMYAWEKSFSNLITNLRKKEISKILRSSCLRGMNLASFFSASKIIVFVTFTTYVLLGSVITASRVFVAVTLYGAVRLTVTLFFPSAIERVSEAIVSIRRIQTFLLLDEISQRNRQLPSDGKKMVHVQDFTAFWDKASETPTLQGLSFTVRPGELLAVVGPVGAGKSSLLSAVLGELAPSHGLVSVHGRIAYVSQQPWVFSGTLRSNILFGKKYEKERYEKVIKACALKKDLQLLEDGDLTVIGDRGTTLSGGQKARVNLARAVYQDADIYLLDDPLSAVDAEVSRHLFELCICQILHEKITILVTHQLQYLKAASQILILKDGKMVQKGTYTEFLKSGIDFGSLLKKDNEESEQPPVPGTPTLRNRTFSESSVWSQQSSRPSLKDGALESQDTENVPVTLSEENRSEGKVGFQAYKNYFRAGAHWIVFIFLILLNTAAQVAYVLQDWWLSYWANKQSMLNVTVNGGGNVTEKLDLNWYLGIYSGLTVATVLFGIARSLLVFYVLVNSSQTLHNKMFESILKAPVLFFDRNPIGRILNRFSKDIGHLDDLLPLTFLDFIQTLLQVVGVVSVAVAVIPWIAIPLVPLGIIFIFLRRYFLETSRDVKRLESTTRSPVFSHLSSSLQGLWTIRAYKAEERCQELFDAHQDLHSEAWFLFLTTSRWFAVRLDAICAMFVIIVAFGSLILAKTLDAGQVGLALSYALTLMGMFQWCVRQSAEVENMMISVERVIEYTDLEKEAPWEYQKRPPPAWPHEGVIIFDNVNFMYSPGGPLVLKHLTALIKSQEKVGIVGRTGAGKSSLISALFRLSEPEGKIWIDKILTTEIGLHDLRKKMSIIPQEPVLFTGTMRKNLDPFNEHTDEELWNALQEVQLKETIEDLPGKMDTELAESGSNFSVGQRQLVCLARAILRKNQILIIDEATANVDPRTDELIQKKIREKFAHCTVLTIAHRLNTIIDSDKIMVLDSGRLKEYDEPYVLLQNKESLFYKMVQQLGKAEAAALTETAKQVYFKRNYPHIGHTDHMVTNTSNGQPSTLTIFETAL
Put plainly: Vesicular transport inhibition assay, MRP4. The format is biochemical. The conditions noted are these: membrane vesicles from HEK293 cells. As to the method: Experiment B4: Bile Acid Transporters Inhibition in the Liver. […] The compound was tested on a panel of 10 transporters: BSEP, MRP2, MRP3, MRP4 in a vesicular transport inhibition assay and NTCP, OAT1, OAT2v1, OATP1A2, OATP1B1, OATP1B3 in an uptake transporter inhibition assays. Vesicular transport inhibition assay was performed on membrane vesicles isolated from mammal HEK293 cells overexpressing human ABC transporters. Tested compound were incubated with vesicles and substrates for respective tested transporters. Incubation was performed in the presence of 4 mM ATP or AMP in order to differentiate between uptake by a transporter and passive diffusion into vesicles. In the case of MRP2 and MRP3, reactions were performed in the presence of 2 mM glutathione. Tested compounds were added to the reaction mixture dissolved in 0.75 μl of a solvent (1% of final incubation volume). Reaction mixtures were preincubated for 15 minutes at 37±1° C. Reactions were started by the addition of 25 μl of 12 mM MgATP (or 12 mM AMP) in test buffer, as a background control, separately preincubated.

For a further data set, the target named is T2, OATP1A2 (Homo sapiens, UniProt P46721).
T2 construct: host or cells: HEK293
T2 sequence (P46721 1-670): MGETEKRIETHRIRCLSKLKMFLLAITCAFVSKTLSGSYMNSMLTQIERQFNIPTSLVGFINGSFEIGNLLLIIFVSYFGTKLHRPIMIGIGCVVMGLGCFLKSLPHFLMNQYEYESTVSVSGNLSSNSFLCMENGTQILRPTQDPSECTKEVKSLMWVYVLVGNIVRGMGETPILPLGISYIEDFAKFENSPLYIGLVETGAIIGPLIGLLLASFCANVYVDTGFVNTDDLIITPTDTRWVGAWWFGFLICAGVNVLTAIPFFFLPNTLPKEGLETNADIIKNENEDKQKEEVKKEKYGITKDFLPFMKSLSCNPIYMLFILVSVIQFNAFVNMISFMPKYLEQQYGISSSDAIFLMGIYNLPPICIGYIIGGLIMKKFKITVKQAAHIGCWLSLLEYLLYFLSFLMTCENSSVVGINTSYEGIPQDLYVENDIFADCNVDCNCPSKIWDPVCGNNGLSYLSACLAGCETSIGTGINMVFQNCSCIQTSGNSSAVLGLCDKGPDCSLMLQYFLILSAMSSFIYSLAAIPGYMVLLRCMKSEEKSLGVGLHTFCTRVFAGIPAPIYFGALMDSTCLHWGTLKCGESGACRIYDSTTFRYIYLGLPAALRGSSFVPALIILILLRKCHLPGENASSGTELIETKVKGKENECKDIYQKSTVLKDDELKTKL
Put plainly: Uptake transporter inhibition assay, OATP1A2. The format is cell-based. The conditions noted are these: HEK293 cells overexpressing transporter. As to the method: Experiment B4: Bile Acid Transporters Inhibition in the Liver.
The compound was tested on a panel of 10 transporters: BSEP, MRP2, MRP3, MRP4 in a vesicular transport inhibition assay and NTCP, OAT1, OAT2v1, OATP1A2, OATP1B1, OATP1B3 in an uptake transporter inhibition assays.
Transporter uptake inhibition test was performed on mammal HEK293 cells overexpressing of a respective transporter. Cells were cultured at 37±1° C. and seeded on 96-well tissue culture plate at 1×10^5/well. Substrate was removed prior to experiment and cells were washed twice with 100 μl of respective buffer (HK pH 7.4 for OATP1B1 and HBSS pH 7.4 for NTCP, OAT1, OAT2v1, OATP1A2, and OATP1B3). Uptake studies were performed at 37±1° C. in 50 μl of respective buffer containing radioactively tagged substrate and tested compound or solvent.
After experiment cells were washed twice with 100 μl of ice-cold respective buffer and lysed with 50 μl of 0.1M NaOH. Transport of radioactively tagged substrate was determined by scintillation counter measurement.

`CC#C[C@@H](CC(=O)O)c1ccc(OCC(C)=C(C)C)cc1` [Example S1, (3S)-3-{4-[(2,3-dimethylbut-2-en-1-yl)oxy]phenyl}hex-4-ynoic acid calcium salt]: the IC50 was determined as 131 µM against MRP4 and 118 µM against OATP1A2.

As for `Cc1cc(OCCCS(C)(=O)=O)cc(C)c1-c1cccc(COc2ccc3c(c2)OC[C@H]3CC(=O)O)c1` [Example R1, 2[(3S)-6-({3-[4-(3-methanesulfonylpropoxy)-2,6-dimethylphenyl]-phenyl}methoxy)-2,3-dihydro-1-benzofuran-3-yl]acetic acid, reference compound], the IC50 amounted to 6.9 µM against MRP4 and 10.6 µM against OATP1A2.

The IC50 is the point on the concentration scale where inhibition reaches its midpoint. Lower therefore signals inhibition by little substance.
